# Data: ChEMBL document CHEMBL1150476, “Peptoid mimics of a C2-symmetric inhibitor of the HIV-1 protease” (Bioorg Med Chem Lett, 1994)
# Columns and labels:
# [1] = biological target: Human immunodeficiency virus type 1 protease (Human immunodeficiency virus 1) (UniProt Q72874); assay: Concentration required for inhibitory activity against HIV-1 protease at concentration of 10e-5 M by using SQN-(pNO2)F-PIV as substrate; No significant activity
# [2] = biological target: Human immunodeficiency virus type 1 protease (Human immunodeficiency virus 1) (UniProt Q72874); assay: Concentration required for inhibitory activity against HIV-1 protease at concentration of 10e-5 M by using HKARVL-(pNO2)F-EAnLSNH2 as substrate; No significant activity
# [3] = biological target: Human immunodeficiency virus type 1 protease (Human immunodeficiency virus 1) (UniProt Q72874); assay: Concentration required for inhibitory activity against HIV-1 protease at concentration of 10e-5 M by using TLNFPIS AMC as substrate; No significant activity
Structure (SMILES),Activity [1],Activity [2],Activity [3]
CC(C)N(CC(=O)N(Cc1ccccc1)CC(O)CN(Cc1ccccc1)C(=O)CN(C(=O)CN(C(=O)OC(C)(C)C)C(C)C)C(C)C)C(=O)CN(C(=O)OC(C)(C)C)C(C)C,No significant activity,No significant activity,No significant activity
CC(C)N(CC(=O)N(Cc1ccccc1)CC(O)CN(Cc1ccccc1)C(=O)CN(C(=O)CN(C(=O)CCC(=O)O)C(C)C)C(C)C)C(=O)CN(C(=O)CCC(=O)O)C(C)C,No significant activity,No significant activity,No significant activity
CC(C)N(CC(=O)N(Cc1ccccc1)CC(O)CN(Cc1ccccc1)C(=O)CN(C(=O)CN(C(=O)OCc1ccccc1)C(C)C)C(C)C)C(=O)CN(C(=O)OCc1ccccc1)C(C)C,No significant activity,No significant activity,No significant activity

# More lines, now with the values ahead:
Activity [1],Activity [2],Activity [3],Structure (SMILES)
No significant activity,No significant activity,No significant activity,CCCCCCCC/C=C\CCCCCCCC(=O)N(CC(=O)N(CC(=O)N(Cc1ccccc1)CC(O)CN(Cc1ccccc1)C(=O)CN(C(=O)CN(C(=O)CCCCCCC/C=C\CCCCCCCC)C(C)C)C(C)C)C(C)C)C(C)C
No significant activity,No significant activity,No significant activity,CC(C)NCC(=O)N(CC(=O)N(Cc1ccccc1)CC(O)CN(Cc1ccccc1)C(=O)CN(C(=O)CNC(C)C)C(C)C)C(C)C
